Entries after “also recorded” stand apart in the source; their conditions may differ.
System: Tsk-1 mice
Experiment: Wound healing in Tsk-1 mice (tight-skin mouse model of SSc), 4 mm punch wounds
Type: in vivo
Conditions: for Healing time relative to healthy WT control mice (in words): TSK mice, no dose given; for Healing time relative to healthy WT control mice (in words) / Wound healing in tsk-1 mice versus placebo (in words): summary statement; for Reduction of wound size / Normalization of wound healing versus placebo-treated WT mice (68%±2%) / Wound healing in tsk-1 mice versus placebo (in words): tsk-1 mice; for Reduction of wound size / Normalization of wound healing versus placebo-treated WT mice (68%±2%): 3 days after punching; for Reduction of wound size: mean±SEM; for Normalization of wound healing versus placebo-treated WT mice (68%±2%): 45 ppm in mice chow; for Wound healing in tsk-1 mice versus placebo (in words): drug in food
Experimental: The tight-skin (Tsk-1) mouse model of SSc was used to evaluate the effects of compound according to formula (27) and (3) (BAY 41-2272 and BAY 63-2521) on wound healing in mice with substantial skin fibrosis. Due to an autosomal dominant mutation namely a tandem duplication of the fibrillin-1 gene, the phenotype of tsk-1 mice is characterized by an increased hypodermal thickness (Beyer et al. 2010). Genotyping of Tsk-1 mice was performed by PCR with the following primers: mutated fibrillin-1/tsk-1 forward primer: 5′-[…]-3′, reverse primer: 5′-[…]-3′.
The effects of either placebo (=vehicle for the compounds=0.5% tylose solution), or the compound according to formula (27) or (3), (BAY 41-2272 or BAY 63-2521) were studied in Tsk-1 mice. Tsk-1 mice were anaesthetized and carefully shaved 3 days before setting the wounds for exact quantification of the wound size. In order to avoid influences on wound healing by daily handling of the animals, the bi-daily gavage treatment was replaced by drug administration in the food. Mice received either normal mice chow (placebo) or mice chow, containing 15 and 45 ppm of compound according to formula (27), (BAY 41-2272) or containing 5 ppm, 15 ppm and 45 ppm of compound according to formula (3), (BAY 63-2521), respectively. […] Treatment groups consist of at least 8 tsk-1 mice per group. Treatment started on the day of shaving to achieve steady state exposure. Three days after shaving, mice were carefully anesthetized and round wounds were punched with 4 mm in diameter. 3 days after punching, mice were euthanized and the wound size was assessed. Statistical analysis of data was done by one-way ANOVA followed by Tuckey's multiple comparison post-hoc analysis

[1] = 15 ppm in mice chow (exposure similar to 1 mg/kg BID)
[2] = 45 ppm in mice chow (exposure similar to 3 mg/kg BID)

COC(=O)N(C)c1c(N)nc(-c2nn(Cc3ccccc3F)c3ncccc23)nc1N [(3)]
Healing time relative to healthy WT control mice (in words): normalized the healing time to healthy WT control mice | Reduction of wound size (5 ppm in mice chow (exposure similar to 0.3 mg/kg BID)): 59%±4% | Reduction of wound size [1]: 65±3% | Reduction of wound size [2]: 70%±2% | Normalization of wound healing versus placebo-treated WT mice (68%±2%): normalized wound healing to a similar extent as observed in placebo-treated WT mice | Wound healing in tsk-1 mice versus placebo (in words): significantly and dose-dependently accelerated wound healing; also recorded: dose-dependently and significantly accelerated wound healing; also recorded: significantly and dose-dependently improved

Nc1nc(-c2nn(Cc3ccccc3F)c3ncccc23)ncc1C1CC1 [(27)]
Healing time relative to healthy WT control mice (in words): normalized the healing time to healthy WT control mice | Reduction of wound size [1]: 64±2% | Reduction of wound size [2]: 73±2% | Normalization of wound healing versus placebo-treated WT mice (68%±2%): normalized wound healing to a similar extent as observed in placebo-treated WT mice | Wound healing in tsk-1 mice versus placebo (in words): significantly and dose-dependently accelerated wound healing; also recorded: significantly and dose-dependently improved

Reference: patent US20180169095A1, “THE USE OF SGC STIMULATORS, SGC ACTIVATORS, ALONE AND COMBINATIONS WITH PDE5 INHIBITORS FOR THE TREATMENT OF DIGITAL ULCERS (DU) CONCOMITANT TO SYSTEMIC SCLEROSIS (SSC)” (Bayer Pharma Aktiengesellschaft, priority 2015, published 2018)
